# Data published in PubChem BioAssay AID2060626 (Molecular Pharmacology Branch, DTP, NCI, 2025).
# Test system: 168753-222-R-J1-PDC complex spheroid viability
# Assay: Anticancer human tumor 168753-222-R-J1-PDC patient-derived bladder carcinoma cell line growth inhibition [CLK]
# Conditions: for IC50: curve of first compound; for viability, T/C: stronger effect = lower value
# Method in brief: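 Patient-derived tumor cells grown as complex spheroids with HUVEC endothelial cells and mesenchymal stem cells, treated with drug combinations. Concentrations descend in half-log steps from near clinical Cmax, or from 10 microM if Cmax unknown.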
# 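Note: viability measured after seven days of drug exposure.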
# 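Throughout, for viability, T/C: luminescence signal used as surrogate for viable cell amount; 100% = DMSO vehicle control wells.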
structure (smiles),measurement,setting,value
C=CC(=O)Nc1cc(Nc2nccc(-c3cn(C)c4ccccc34)n2)c(OC)cc1N(C)CCN(C)C + CN1CCN(c2cc(C(=O)Nc3cc4cc(-c5cnn(C)c5)ccc4cn3)ccn2)CC1,IC50,second compound 0.0316 µM,> 300 nM
same,IC50,second compound 0.1 µM,58.9 nM
same,IC50,second compound 0.316 µM,< 0.949 nM
same,IC50,second compound 1 µM,< 0.949 nM
same,IC50,second compound 3.16 µM,< 0.949 nM
same,IC50,second compound 10 µM,< 0.949 nM
same,"viability, T/C","second compound 0.0316 µM, first compound 0.000949 µM",117%
same,"viability, T/C","second compound 0.0316 µM, first compound 0.003 µM",113%
same,"viability, T/C","second compound 0.0316 µM, first compound 0.00949 µM",105%
same,"viability, T/C","second compound 0.0316 µM, first compound 0.03 µM",114%
same,"viability, T/C","second compound 0.0316 µM, first compound 0.0949 µM",103%
same,"viability, T/C","second compound 0.0316 µM, first compound 0.3 µM",108%
same,"viability, T/C","second compound 0.1 µM, first compound 0.000949 µM",65.7%
same,"viability, T/C","second compound 0.1 µM, first compound 0.003 µM",71.8%
same,"viability, T/C","second compound 0.1 µM, first compound 0.00949 µM",53.4%
same,"viability, T/C","second compound 0.1 µM, first compound 0.03 µM",77%
same,"viability, T/C","second compound 0.1 µM, first compound 0.0949 µM",21.2%
same,"viability, T/C","second compound 0.1 µM, first compound 0.3 µM",54.9%
same,"viability, T/C","second compound 0.316 µM, first compound 0.000949 µM",10.4%
same,"viability, T/C","second compound 0.316 µM, first compound 0.003 µM",8.73%
same,"viability, T/C","second compound 0.316 µM, first compound 0.00949 µM",9.29%
same,"viability, T/C","second compound 0.316 µM, first compound 0.03 µM",6.59%
same,"viability, T/C","second compound 0.316 µM, first compound 0.0949 µM",5.77%
same,"viability, T/C","second compound 0.316 µM, first compound 0.3 µM",1.61%
same,"viability, T/C","second compound 1 µM, first compound 0.000949 µM",0.14%
same,"viability, T/C","second compound 1 µM, first compound 0.003 µM",0.17%
same,"viability, T/C","second compound 1 µM, first compound 0.00949 µM",0.15%
same,"viability, T/C","second compound 1 µM, first compound 0.03 µM",0.32%
same,"viability, T/C","second compound 1 µM, first compound 0.0949 µM",0.13%
same,"viability, T/C","second compound 1 µM, first compound 0.3 µM",0.91%
same,"viability, T/C","second compound 3.16 µM, first compound 0.000949 µM",0.1%
same,"viability, T/C","second compound 3.16 µM, first compound 0.003 µM",0.13%
same,"viability, T/C","second compound 3.16 µM, first compound 0.00949 µM",0.21%
same,"viability, T/C","second compound 3.16 µM, first compound 0.03 µM",0.09%
same,"viability, T/C","second compound 3.16 µM, first compound 0.0949 µM",0.17%
same,"viability, T/C","second compound 3.16 µM, first compound 0.3 µM",2.63%
same,"viability, T/C","second compound 10 µM, first compound 0.000949 µM",0.15%
same,"viability, T/C","second compound 10 µM, first compound 0.003 µM",0.28%
same,"viability, T/C","second compound 10 µM, first compound 0.00949 µM",0.5%
same,"viability, T/C","second compound 10 µM, first compound 0.03 µM",0.15%
same,"viability, T/C","second compound 10 µM, first compound 0.0949 µM",0.27%
same,"viability, T/C","second compound 10 µM, first compound 0.3 µM",0.37%
